Results: US20260250290A1 (BRISTOL-MYERS SQUIBB COMPANY, priority 2023, published 2026)
pIC50: −log10 of the molar value.

The molecules below were run against T1, full length SGK1 (Homo sapiens, UniProt O00141) (assay: SGK1 inhibition Assay A (Caliper LabChip electrophoretic separation of fluorescent peptide substrate and phosphorylated product)). Details: Assay A; 20 μM ATP, 40 min incubation; read-out: SGK1 IC50.
T1 construct: 125 μM full length SGK1 (Life Technologies Part #PR7358A); purchased Life Technologies PR7358A
T1 sequence (O00141 1-431): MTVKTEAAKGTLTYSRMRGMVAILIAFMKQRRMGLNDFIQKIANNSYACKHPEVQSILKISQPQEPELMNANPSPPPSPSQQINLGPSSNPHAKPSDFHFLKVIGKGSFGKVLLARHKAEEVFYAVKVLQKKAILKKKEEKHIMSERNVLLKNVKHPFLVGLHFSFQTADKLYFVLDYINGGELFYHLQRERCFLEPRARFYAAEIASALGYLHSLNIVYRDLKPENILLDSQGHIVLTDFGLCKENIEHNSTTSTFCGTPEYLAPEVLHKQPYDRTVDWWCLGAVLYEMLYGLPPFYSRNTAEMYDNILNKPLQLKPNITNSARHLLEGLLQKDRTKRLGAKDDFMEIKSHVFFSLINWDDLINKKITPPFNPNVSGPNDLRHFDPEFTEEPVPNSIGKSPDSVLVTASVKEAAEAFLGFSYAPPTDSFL
Format: biochemical

Row | Compound | pIC50
1 | Nc1ncnn2c(-c3ccc4nnnn4c3)cc(N3CCC[C@@H](NC(=O)c4ccc(Cl)s4)C3)c12 [Example 244, (R)-N-(1-(4-amino-7-(tetrazolo[1,5-a]pyridin-6-yl)pyrrolo[2,1-f][1,2,4]triazin-5-yl)piperidin-3-yl)-5-chlorothiophene-2-carboxamide] | 9.00
2 | CC(=O)N1CC=C(c2cc(N3CCC[C@@H](NC(=O)c4cc(C)cc(N5CCN(C)CC5)n4)C3)c3c(N)ncnn23)C1 [Example 732, (R)-N-(1-(7-(1-acetyl-2,5-dihydro-1H-pyrrol-3-yl)-4-aminopyrrolo[2,1-f][1,2,4]triazin-5-yl)piperidin-3-yl)-4-methyl-6-(4-methylpiperazin-1-yl)picolinamide] | 7.60
3 | NC(=O)c1ncc(-c2cc(N3CCC[C@@H](NC(=O)c4ccc(C(F)F)s4)C3)c3c(N)ncnn23)cc1C(F)(F)F [Example 525] | 7.59
4 | CC(=O)N1CC=C(c2cc(N3CCC[C@@H](NC(=O)Oc4ccccc4)C3)c3c(N)ncnn23)C1 [Example 873, phenyl (R)-(1-(7-(1-acetyl-2,5-dihydro-1H-pyrrol-3-yl)-4-aminopyrrolo[2,1-f][1,2,4]triazin-5-yl)piperidin-3-yl)carbamate] | 6.03
5 | CS(=O)(=O)c1ccc(-c2cc(N3CCC[C@@H](NC(=O)c4cc5c(s4)CCCC5)C3)c3c(N)ncnn23)cc1 [Example 90, (R)-N-(1-(4-amino-7-(4-(methylsulfonyl)phenyl)pyrrolo[2,1-f][1,2,4]triazin-5-yl)piperidin-3-yl)-4,5,6,7-tetrahydrobenzo[b] thiophene-2-carboxamide] | 7.31
6 | CS(=O)(=O)c1ccc(-c2cc(N3CCC[C@@H](NC(=O)c4ccccc4)C3)c3c(N)ncnn23)cc1 [Example 13, (R)—N-(1-(4-amino-7-(4-(methylsulfonyl)phenyl)pyrrolo[2,1-f][1,2,4]triazin-5-yl)piperidin-3-yl)benzamide] | 7.55
7 | CS(=O)(=O)c1ccc(-c2cc(N3CCC[C@@H](NC(=O)c4ccc(F)s4)C3)c3c(N)ncnn23)cc1 [Example 93, (R)-N-(1-(4-amino-7-(4-(methylsulfonyl)phenyl)pyrrolo[2,1-f][1,2,4]triazin-5-yl)piperidin-3-yl)-5-fluorothiophene-2-carboxamide] | 8.30
8 | CC(=O)N1CC=C(c2cc(N3CCC[C@@H](NC(=O)c4ccnc(OCCN(C)C)c4)C3)c3c(N)ncnn23)C1 [Example 706, (R)-N-(1-(7-(1-acetyl-2,5-dihydro-1H-pyrrol-3-yl)-4-aminopyrrolo[2,1-f][1,2,4]triazin-5-yl)piperidin-3-yl)-2-(2-(dimethylamino)ethoxy) isonicotinamide] | 7.24
9 | Cc1cc(-c2cc(N3CCC[C@@H](NC(=O)c4ccc(C(F)F)s4)C3)c3c(N)ncnn23)cnc1C#N [Example 522] | 7.77
10 | CS(=O)(=O)c1ccc(-c2c(Cl)c(N3CCC[C@@H](NC(=O)c4ccncc4)C3)c3c(N)ncnn23)cc1 [Example 196, N-[(3R)-1-[4-amino-6-chloro-7-(4-methanesulfonylphenyl)pyrrolo[2,1-f][1,2,4]triazin-5-yl]piperidin-3-yl]pyridine-4-carboxamide] | 6.65
11 | Cc1nc(C)c(C(=O)N[C@@H]2CCCN(c3cc(-c4ccnc(C(F)F)c4)n4ncnc(N)c34)C2)s1 [Example 485, (R)-N-(1-(4-amino-7-(2-(difluoromethyl)pyridin-4-yl)pyrrolo[2,1-f][1,2,4]triazin-5-yl)piperidin-3-yl)-2,4-dimethylthiazole-5-carboxamide] | 7.59
12 | CC(=O)N1CC=C(c2cc(N3CCC[C@@H](NC(=O)c4csc(-c5cccnc5)n4)C3)c3c(N)ncnn23)C1 [Example 450, (R)-N-(1-(7-(1-acetyl-2,5-dihydro-1H-pyrrol-3-yl)-4-aminopyrrolo[2,1-f][1,2,4]triazin-5-yl)piperidin-3-yl)-2-(pyridin-3-yl)thiazole-4-carboxamide] | 7.28
13 | CC(O)c1cccc(-c2cc(N3CCC[C@@H](NC(=O)c4ccc(Cl)s4)C3)c3c(N)ncnn23)c1 (stereo partly drawn) [Example 240, N-[(3R)-1-{4-amino-7-[3-(1-hydroxyethyl)phenyl]pyrrolo[2,1-f][1,2,4]triazin-5-yl}piperidin-3-yl]-5-chlorothiophene-2-carboxamide] | 7.85
14 | Nc1ncnn2c(-c3ccn4nnnc4c3)cc(N3CCC[C@@H](NC(=O)c4ccc(Cl)s4)C3)c12 [Example 253, (R)-N-(1-(4-amino-7-(tetrazolo[1,5-a]pyridin-7-yl)pyrrolo[2,1-f][1,2,4]triazin-5-yl)piperidin-3-yl)-5-chlorothiophene-2-carboxamide] | 8.70
15 | Cc1cc(CO)c(C(=O)N[C@@H]2CCCN(c3cc(-c4ccnc(F)c4)n4ncnc(N)c34)C2)s1 [Example 202, (R)—N-(1-(4-amino-7-(2-fluoropyridin-4-yl)pyrrolo[2,1-f][1,2,4]triazin-5-yl)piperidin-3-yl)-3-(hydroxymethyl)-5-methylthiophene-2-carboxamide] | 7.92
16 | Cc1cc(C(=O)N[C@@H]2CCCN(c3cc(C4=CCN(S(C)(=O)=O)C4)n4ncnc(N)c34)C2)ccn1 [Example 116, (R)—N-(1-(4-amino-7-(1-(methylsulfonyl)-2,5-dihydro-1H-pyrrol-3-yl)pyrrolo[2,1-f][1,2,4]triazin-5-yl)piperidin-3-yl)-2-methylisonicotinamide] | 7.92

Further lines, results first:

Row | pIC50 | Compound
17 | 8.05 | CC(=O)N1CC=C(c2cc(N3CCC[C@@H](NC(=O)c4sc(C(F)F)cc4OC4CCNCC4)C3)c3c(N)ncnn23)C1 [Example 347, (R)—N-(1-(7-(1-acetyl-2,5-dihydro-1H-pyrrol-3-yl)-4-aminopyrrolo[2,1-f][1,2,4]triazin-5-yl)piperidin-3-yl)-5-(difluoromethyl)-3-(piperidin-4-yloxy)thiophene-2-carboxamide]
18 | 7.00 | COC(=O)N1CC=C(c2cc(N3CCC[C@@H](NC(=O)c4sc5ccccc5c4OC4CCN(C(=O)OC(C)(C)C)CC4)C3)c3c(N)ncnn23)C1 [Example 651, ter-butyl (R)-4-((2-((1-(4-amino-7-(1-(methoxycarbonyl)-2,5-dihydro-1H-pyrrol-3-yl)pyrrolo[2,1-f][1,2,4]triazin-5-yl)piperidin-3-yl)carbamoyl)benzo[b]thiophen-3-yl)oxy)piperidine-1-carboxylate]
19 | 8.00 | COC(=O)N1CC=C(c2cc(N3CCC[C@@H](NC(=O)c4sc(C(F)F)cc4OC4CCN(C(C)C)CC4)C3)c3c(N)ncnn23)C1 [Example 441, Methyl (R)-3-(4-amino-5-(3-(5-(difluoromethyl)-3-((1-isopropylpiperidin-4-yl)oxy)thiophene-2-carboxamido)piperidin-1-yl)pyrrolo[2,1-f][1,2,4]triazin-7-yl)-2,5-dihydro-1H-pyrrole-1-carboxylate]
20 | 8.70 | COC(=O)N1CC=C(c2cc(N3CCCC(NC(=O)c4sc(Cl)cc4OC4CCNC(C)(C)C4)C3)c3c(N)ncnn23)C1 (single isomer, unassigned) [Example 630]
21 | 7.64 | COC(=O)N1CC=C(c2cc(N3CCC[C@@H](NC(=O)c4sc(Cl)cc4OCCN4CCOC(C)C4)C3)c3c(N)ncnn23)C1 (stereo partly drawn) [Example 286, Methyl 3-(4-amino-5-((3R)-3-(5-chloro-3-(2-(2-methylmorpholino)ethoxy)thiophene-2-carboxamido)piperidin-1-yl)pyrrolo[2,1-f] [1,2,4]triazin-7-yl)-2,5-dihydro-1H-pyrrole-1-carboxylate]
22 | 6.79 | CC(=O)N1CC=C(c2cc(N3CCC[C@@H](NC(=O)c4sc(C(F)F)cc4C4CCNCC4)C3)c3c(N)ncnn23)C1 [Example 393E, (R)—N-(1-(7-(1-acetyl-2,5-dihydro-1H-pyrrol-3-yl)-4-aminopyrrolo[2,1-f][1,2,4]triazin-5-yl)piperidin-3-yl)-5-(difluoromethyl)-3-(piperidin-4-yl)thiophene-2-carboxamide]
23 | 7.92 | Nc1ncnn2c(C3=CCN(C(=O)c4ccno4)C3)cc(N3CCC[C@@H](NC(=O)c4ccc(Cl)s4)C3)c12 [Example 899, (R)-N-(1-(4-amino-7-(1-(isoxazole-5-carbony1)-2,5-dihydro-1H-pyrrol-3-y1)pyrrolo[2,1-f][1,2,4]triazin-5-y1)piperidin-3-y1)-5-chlorothiophene-2-carboxamide]
24 | 9.40 | NC(=O)c1ccc(-c2cc(N3CCC[C@@H](NC(=O)c4sc(Cl)cc4OCC4CCNCC4)C3)c3c(N)ncnn23)cn1 [Example 644, (R)-5-(4-amino-5-(3-(5-chloro-3-(piperidin-4-ylmethoxy)thiophene-2-carboxamido)piperidin-1-y1)pyrrolo[2,1-f][1,2,4]triazin-7-y1)picolinamide]
25 | 8.30 | COC(=O)N1CC=C(c2cc(N3CCCC(NC(=O)c4sc(Cl)cc4OC4CCNC(C)(C)C4)C3)c3c(N)ncnn23)C1 (single isomer, unassigned) [Example 629]
26 | 7.74 | Nc1ncnn2c(C3=CCN(C(=O)[C@H]4C[C@@H]4F)C3)cc(N3CCC[C@@H](NC(=O)c4sc(Cl)cc4OCCN4CCOCC4)C3)c12 (relative stereo) [Example 262, rel-N-((R)-1-(4-amino-7-(1-((1R,2S)-2-fluorocyclopropane-1-carbonyl)-2,5-dihydro-1H-pyrrol-3-yl)pyrrolo[2,1-f][1,2,4]triazin-5-yl)piperidin-3-yl)-5-chloro-3-(2-morpholinoethoxy)thiophene-2-carboxamide]
